Measured values taken from paper PMC9250534, “Synthesis and direct assay of large macrocycle diversities by combinatorial late-stage modification at picomole scale” (Nature Communications, 2022).
Numbered stars: 1 amine (or outer) side, 2 acyl side, 3 side chain; on linkers, the order of the positions; unused ones are H or OH. Bridge positions count the residues as written; N and C are the ends. Square brackets hold non-standard residues; d marks the D form. Side chains are listed from the residue outwards. Peptide text beside a SMILES is read from it. * marks the point of attachment. Shikimoyl = O=C(C1=C[C@@H](O)[C@@H](O)[C@H](O)C1)*; Cyclopropanecarbonyl(1-CN) = N#CC1(C(=O)*)CC1; Pyrazinoyl(5-oxo-4H) = O=C(c1c[nH]c(=O)cn1)*; Benzoyl(3,5-diOMe) = COc1cc(OC)cc(C(=O)*)c1; Isoxazole3carbonyl(5-Me) = Cc1cc(C(=O)*)no1; Tetrahydropyran4carbonyl = O=C(C1CCOCC1)*; Isoorotoyl = O=C(c1c[nH]c(=O)[nH]c1=O)*; Nicotinoyl(6-OMe) = COc1ccc(C(=O)*)cn1; Indane2carbonyl = O=C(C1Cc2ccccc2C1)*; Acetyl(4-pyridyl) = O=C(Cc1ccncc1)*; Benzoyl(4-OMe) = COc1ccc(C(=O)*)cc1; Benzoyl(4-Cl) = O=C(c1ccc(Cl)cc1)*; Cyclohexylacetyl = O=C(CC1CCCCC1)*; Pyrazinecarbonyl = O=C(c1cnccn1)*; Phenoxyacetyl = O=C(COc1ccccc1)*; X10 = O=C(c1cc(-c2ccco2)[nH]n1)*; Pentanoyl(4-Me) = CC(C)CCC(=O)*; X5 = O=C(c1cc2cc(Cl)ccc2[nH]1)*; X14 = O=C(C1(c2ccccc2)CCCCC1)*; X4 = O=C(c1cccc2c1OC(F)(F)O2)*; Cysteamide = C(CS[*:3])N[*:1]; X3 = O=C(Cc1c[nH]c2ccccc12)*; X6 = O=C(c1ccc2nc[nH]c2c1)*; X8 = O=C(c1ccc(=O)[nH]n1)*; X9 = COc1ccc(CC(=O)*)cc1OC; Ethoxyacetyl = CCOCC(=O)*; Isovaleryl = CC(C)CC(=O)*; X7 = CC(C)=CCCC(C)CC(=O)*; MeOSuc = COC(=O)CCC(=O)*; X1 = O=C(/C=C/c1ccccc1)*; Dap = NC[C@H](N)C(=O)O; X15 = O=C(c1cc[nH]n1)*; Inp = O=C(O)C1CCNCC1; Bz = O=C(c1ccccc1)*; Ms = CS(=O)(=O)*; Mpa = O=C(O)CCS

The compounds below were run against MDM2 (Homo sapiens, UniProt Q00987) (assay: MDM2 binding screen: displacement of fluorescent p53 peptide probe FP53 (fluorescence polarization)). Settings: 10 µM macrocycle concentration; crude acylated macrocycle (scaffold Mpa-AA1-AA2-AA3 x carboxylic acid); p53-based fluorescent peptide, human MDM2.
In short: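 Single-point screen: one fluorescence anisotropy reading at 25 °C (485 nm excitation, 535 nm emission) per macrocycle. Crude macrocycle reactions, final 10 µM, were scored for displacing the fluorescent p53 peptide from human MDM2.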

Sequence of MDM2 (Q00987 whole entry, the tested form may be a part): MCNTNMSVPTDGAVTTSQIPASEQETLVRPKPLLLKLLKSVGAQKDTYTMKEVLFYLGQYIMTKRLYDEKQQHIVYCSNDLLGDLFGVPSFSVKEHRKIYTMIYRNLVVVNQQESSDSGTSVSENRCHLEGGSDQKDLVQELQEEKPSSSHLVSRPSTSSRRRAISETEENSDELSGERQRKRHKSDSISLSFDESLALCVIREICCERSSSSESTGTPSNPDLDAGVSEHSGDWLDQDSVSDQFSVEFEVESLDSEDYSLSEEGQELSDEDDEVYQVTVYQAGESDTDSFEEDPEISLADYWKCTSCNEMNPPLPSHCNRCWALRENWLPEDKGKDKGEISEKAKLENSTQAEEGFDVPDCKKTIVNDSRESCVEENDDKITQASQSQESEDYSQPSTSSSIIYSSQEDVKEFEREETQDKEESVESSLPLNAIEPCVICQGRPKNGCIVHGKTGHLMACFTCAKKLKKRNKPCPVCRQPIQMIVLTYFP

SMILES	fraction fluorescent probe displaced
O=C(NC[C@@H]1NC(=O)[C@@H]2CCCN2C(=O)CCSSCCNC(=O)[C@H](Cc2ccccc2)NC1=O)c1ccc(Cl)cc1 [X-B1-D3-F + A25] ([Mpa]P[Dap](Benzoyl(4-Cl))F-Cysteamide; disulfide 1-C)	0.2195
COc1ccc(CC(=O)NC[C@@H]2NC(=O)[C@@H]3CCCN3C(=O)CCSSCCNC(=O)[C@H](Cc3ccccc3)NC2=O)cc1OC [X-B1-D3-F + A37] ([Mpa]P[Dap](X9)F-Cysteamide; disulfide 1-C)	0.02818
O=C(NC[C@@H]1NC(=O)[C@@H]2CCCN2C(=O)CCSSCCNC(=O)[C@H](Cc2ccccc2)NC1=O)c1cccc2c1OC(F)(F)O2 [X-B1-D3-F + A38] ([Mpa]P[Dap](X4)F-Cysteamide; disulfide 1-C)	0.06653
O=C(NC[C@@H]1NC(=O)[C@@H]2CCCN2C(=O)CCSSCCNC(=O)[C@H](Cc2ccccc2)NC1=O)c1cc2cc(Cl)ccc2[nH]1 [X-B1-D3-F + A39] ([Mpa]P[Dap](X5)F-Cysteamide; disulfide 1-C)	0.08617
O=C(NC[C@@H]1NC(=O)[C@@H]2CCCN2C(=O)CCSSCCNC(=O)[C@H](Cc2ccccc2)NC1=O)C1CCOCC1 [X-B1-D3-F + A44] ([Mpa]P[Dap](Tetrahydropyran4carbonyl)F-Cysteamide; disulfide 1-C)	0.01122
N#CC1(C(=O)NC[C@@H]2NC(=O)[C@@H]3CCCN3C(=O)CCSSCCNC(=O)[C@H](Cc3ccccc3)NC2=O)CC1 [X-B1-D3-F + A56] ([Mpa]P[Dap](Cyclopropanecarbonyl(1-CN))F-Cysteamide; disulfide 1-C)	0
CS(=O)(=O)N1CCC(C(=O)NC[C@@H]2NC(=O)[C@@H]3CCCN3C(=O)CCSSCCNC(=O)[C@H](Cc3ccccc3)NC2=O)CC1 [X-B1-D3-F + A57] ([Mpa]P[Dap]([Inp-Ms])F-Cysteamide; disulfide 1-C)	-0.1145
O=C(CC1CCCCC1)NC[C@@H]1NC(=O)[C@@H]2CCCN2C(=O)CCSSCCNC(=O)[C@H](Cc2ccccc2)NC1=O [X-B1-D3-F + A66] ([Mpa]P[Dap](Cyclohexylacetyl)F-Cysteamide; disulfide 1-C)	0.03478
CC(C)CCC(=O)NC[C@@H]1NC(=O)[C@@H]2CCCN2C(=O)CCSSCCNC(=O)[C@H](Cc2ccccc2)NC1=O [X-B1-D3-F + A68] ([Mpa]P[Dap](Pentanoyl(4-Me))F-Cysteamide; disulfide 1-C)	-0.1369
O=C(Cc1ccncc1)NC[C@@H]1NC(=O)[C@@H]2CCCN2C(=O)CCSSCCNC(=O)[C@H](Cc2ccccc2)NC1=O [X-B1-D3-F + A70] ([Mpa]P[Dap](Acetyl(4-pyridyl))F-Cysteamide; disulfide 1-C)	-0.04156
COc1ccc(C(=O)NC[C@@H]2NC(=O)[C@@H]3CCCN3C(=O)CCSSCCNC(=O)[C@H](Cc3ccccc3)NC2=O)cc1 [X-B1-D3-F + A71] ([Mpa]P[Dap](Benzoyl(4-OMe))F-Cysteamide; disulfide 1-C)	-0.03153
O=C(NC[C@@H]1NC(=O)[C@@H]2CCCN2C(=O)CCSSCCNC(=O)[C@H](Cc2ccccc2)NC1=O)C1=C[C@@H](O)[C@@H](O)[C@H](O)C1 [X-B1-D3-F + A72] ([Mpa]P[Dap](Shikimoyl)F-Cysteamide; disulfide 1-C)	0.06911
O=C(NC[C@@H]1NC(=O)[C@@H]2CCCN2C(=O)CCSSCCNC(=O)[C@H](Cc2ccccc2)NC1=O)C1Cc2ccccc2C1 [X-B1-D3-F + A76] ([Mpa]P[Dap](Indane2carbonyl)F-Cysteamide; disulfide 1-C)	0.03186
O=C(NC[C@@H]1NC(=O)[C@@H]2CCCN2C(=O)CCSSCCNC(=O)[C@H](Cc2ccccc2)NC1=O)c1cc(-c2ccco2)[nH]n1 [X-B1-D3-F + A79] ([Mpa]P[Dap](X10)F-Cysteamide; disulfide 1-C)	0.07009
CC(C)=CCCC(C)CC(=O)NC[C@@H]1NC(=O)[C@@H]2CCCN2C(=O)CCSSCCNC(=O)[C@H](Cc2ccccc2)NC1=O (stereo partly shown) [X-B1-D3-F + A84] ([Mpa]P[Dap](X7)F-Cysteamide; disulfide 1-C)	0.05085
O=C(NC[C@@H]1NC(=O)[C@@H]2CCCN2C(=O)CCSSCCNC(=O)[C@H](Cc2ccccc2)NC1=O)c1ccc(=O)[nH]n1 [X-B1-D3-F + A86] ([Mpa]P[Dap](X8)F-Cysteamide; disulfide 1-C)	0.01272
O=C(/C=C/c1ccccc1)NC[C@@H]1NC(=O)[C@@H]2CCCN2C(=O)CCSSCCNC(=O)[C@H](Cc2ccccc2)NC1=O [X-B1-D3-F + A91] ([Mpa]P[Dap](X1)F-Cysteamide; disulfide 1-C)	0.08311

SMILES	fraction fluorescent probe displaced
COC(=O)CCC(=O)NC[C@@H]1NC(=O)[C@@H]2CCCN2C(=O)CCSSCCNC(=O)[C@H](Cc2ccccc2)NC1=O [X-B1-D3-F + A93] ([Mpa]P[Dap](MeOSuc)F-Cysteamide; disulfide 1-C)	0.05512
O=C1NCCSSCCC(=O)N2CCC[C@H]2C(=O)N[C@@H](CNC(=O)C2(c3ccccc3)CCCCC2)C(=O)N[C@H]1Cc1ccccc1 [X-B1-D3-F + A98] ([Mpa]P[Dap](X14)F-Cysteamide; disulfide 1-C)	0.6432
CCOCC(=O)NC[C@@H]1NC(=O)[C@@H]2CCCN2C(=O)CCSSCCNC(=O)[C@H](Cc2ccccc2)NC1=O [X-B1-D3-F + A104] ([Mpa]P[Dap](Ethoxyacetyl)F-Cysteamide; disulfide 1-C)	0.09201
NC[C@@H]1NC(=O)[C@@H]2CCCN2C(=O)CCSSCCNC(=O)[C@H](Cc2ccccc2)NC1=O [X-B1-D3-F + No Acid] ([Mpa]P[Dap]F-Cysteamide; disulfide 1-C)	0.01749
O=C(NC[C@@H]1NC(=O)[C@@H]2CCCN2C(=O)CCSSCCNC(=O)[C@H](Cc2c[nH]c3ccccc23)NC1=O)c1ccccc1 [X-B1-D3-W + A1] ([Mpa]P[Dap](Bz)W-Cysteamide; disulfide 1-C)	-0.005048
O=C(NC[C@@H]1NC(=O)[C@@H]2CCCN2C(=O)CCSSCCNC(=O)[C@H](Cc2c[nH]c3ccccc23)NC1=O)c1cnccn1 [X-B1-D3-W + A2] ([Mpa]P[Dap](Pyrazinecarbonyl)W-Cysteamide; disulfide 1-C)	0.03807
Cc1cc(C(=O)NC[C@@H]2NC(=O)[C@@H]3CCCN3C(=O)CCSSCCNC(=O)[C@H](Cc3c[nH]c4ccccc34)NC2=O)no1 [X-B1-D3-W + A3] ([Mpa]P[Dap](Isoxazole3carbonyl(5-Me))W-Cysteamide; disulfide 1-C)	0.08125
COc1cc(OC)cc(C(=O)NC[C@@H]2NC(=O)[C@@H]3CCCN3C(=O)CCSSCCNC(=O)[C@H](Cc3c[nH]c4ccccc34)NC2=O)c1 [X-B1-D3-W + A4] ([Mpa]P[Dap](Benzoyl(3,5-diOMe))W-Cysteamide; disulfide 1-C)	0.03512
O=C(NC[C@@H]1NC(=O)[C@@H]2CCCN2C(=O)CCSSCCNC(=O)[C@H](Cc2c[nH]c3ccccc23)NC1=O)c1cc[nH]n1 [X-B1-D3-W + A5] ([Mpa]P[Dap](X15)W-Cysteamide; disulfide 1-C)	0.05625
O=C(NC[C@@H]1NC(=O)[C@@H]2CCCN2C(=O)CCSSCCNC(=O)[C@H](Cc2c[nH]c3ccccc23)NC1=O)c1ccc2nc[nH]c2c1 [X-B1-D3-W + A6] ([Mpa]P[Dap](X6)W-Cysteamide; disulfide 1-C)	0.2779
CC(=O)NC[C@@H]1NC(=O)[C@@H]2CCCN2C(=O)CCSSCCNC(=O)[C@H](Cc2c[nH]c3ccccc23)NC1=O [X-B1-D3-W + A7] ([Mpa]P[Dap](Ac)W-Cysteamide; disulfide 1-C)	0.05096
CC(C)CC(=O)NC[C@@H]1NC(=O)[C@@H]2CCCN2C(=O)CCSSCCNC(=O)[C@H](Cc2c[nH]c3ccccc23)NC1=O [X-B1-D3-W + A8] ([Mpa]P[Dap](Isovaleryl)W-Cysteamide; disulfide 1-C)	0.1324
O=C(NC[C@@H]1NC(=O)[C@@H]2CCCN2C(=O)CCSSCCNC(=O)[C@H](Cc2c[nH]c3ccccc23)NC1=O)c1c[nH]c(=O)cn1 [X-B1-D3-W + A9] ([Mpa]P[Dap](Pyrazinoyl(5-oxo-4H))W-Cysteamide; disulfide 1-C)	0.06006
COc1ccc(C(=O)NC[C@@H]2NC(=O)[C@@H]3CCCN3C(=O)CCSSCCNC(=O)[C@H](Cc3c[nH]c4ccccc34)NC2=O)cn1 [X-B1-D3-W + A10] ([Mpa]P[Dap](Nicotinoyl(6-OMe))W-Cysteamide; disulfide 1-C)	0.2362
O=C(NC[C@@H]1NC(=O)[C@@H]2CCCN2C(=O)CCSSCCNC(=O)[C@H](Cc2c[nH]c3ccccc23)NC1=O)c1c[nH]c(=O)[nH]c1=O [X-B1-D3-W + A11] ([Mpa]P[Dap](Isoorotoyl)W-Cysteamide; disulfide 1-C)	0.1
O=C(Cc1c[nH]c2ccccc12)NC[C@@H]1NC(=O)[C@@H]2CCCN2C(=O)CCSSCCNC(=O)[C@H](Cc2c[nH]c3ccccc23)NC1=O [X-B1-D3-W + A12] ([Mpa]P[Dap](X3)W-Cysteamide; disulfide 1-C)	0.1189
O=C(COc1ccccc1)NC[C@@H]1NC(=O)[C@@H]2CCCN2C(=O)CCSSCCNC(=O)[C@H](Cc2c[nH]c3ccccc23)NC1=O [X-B1-D3-W + A13] ([Mpa]P[Dap](Phenoxyacetyl)W-Cysteamide; disulfide 1-C)	0.1956
